Tested on: rePON1
Test: rePON1-lyso-DGTS interaction, Trp fluorescence quenching
Format: binding
Procedure: To 200 μl rePON1 (50 μg/ml=1.16 μM) solution in black 96-well plate wells was added lyso-DGTS at various concentration (0, 1, 5, 10, 25, 50, 75, and 100 μg/ml). The solutions were incubated for 2 h at 25° C. or 37° C. Fluorescence measurements were performed with an Infinite M200 PRO fluorescence spectrophotometer (Tecan) with emission spectra recorded from 320 to 450 nm at an excitation wavelength of 290 nm.
The effect of lyso-DGTS on rePON1 can result from a specific interaction between the lipid and the enzyme which was studied using Trp fluorescence quenching method. […] (FIG. 3A) and 37° C. (FIG. 3B) in the 300-450 nm range with an excitation wavelength of 290 nm. Lyso-DGTS quenched the fluorescence of rePON1 in a dose dependent manner at both temperatures.
Quenching pathways can be described by the Stern-Volmer equation (eq. 1):
[formula] where F0 and F are the fluorescence intensities in the absence and presence of quencher (lyso-DGTS), respectively, Ksv is the Stern-Volmer quenching constant, and [Q] is the quencher concentration (M).
The binding constant and binding sites were calculated using (eq. 2):
[formula] where Ka is the binding constant, reflecting the degree of interaction between rePON1 and lyso-DGTS, and n is the number of binding sites specifying the number of lyso-DGTS molecules bound to a rePON1. […] (2.377×10^3 M^−1; FIG. 4C). The values obtained for n were not affected by the temperature and were equal to ˜1 (Table 4). The thermodynamic parameters: enthalpy (ΔH), entropy (ΔS), and free energy (ΔG) were calculated to characterize the type of rePON1-lyso-DGTS interaction.

`CC/C=C\C/C=C\C/C=C\C/C=C\C/C=C\CCCC(=O)OCC(O)COCCC(C(=O)[O-])[N+](C)(C)C` (stereo not shown) [lyso-DGTS, lyso-diacylglyceryltrimethylhornmoserine] was tested, and the “Stern-Volmer quenching constant Ksv, rePON1” value (25° C.) was “(1.18±0.13)×10^+4 M^−1”, the “Stern-Volmer quenching constant Ksv, rePON1” value (37° C.) was “(0.93±0.03)×10^+4 M^−1” and the “Binding constant Ka, lyso-DGTS-rePON1” value (298 K (25° C.)) was 10520 M⁻¹. The “Binding constant Ka, lyso-DGTS-rePON1” value (310 K (37° C.)) was 2377 M⁻¹.

— patent US11591288B2, “Compositions and methods for treating atherosclerotic cardiovascular disease” (GAVISH-GALILEE BIO APPLICATIONS LTD., priority 2017, dated 2023)
